Target: Beta-secretase 1 (Homo sapiens, UniProt P56817)
Assay: Biochemical Assay
Conditions: pH 4.5; 37 °C
Method: Briefly, the assay was carried out by incubation of the substrate peptide (5 μM), BACE1 enzyme (550 ng/mL) that was expressed and purified from insect expression system and varied concentrations of compounds at pH 4.5. After 1 h incubation at 37°C, stop buffer (3 M sodium acetate) was introduced into the reaction mixture to stop the reaction. Finally, the fluorescence intensity was measured on a TECAN GENios reader (Tecan) at room temperature with excitation at 420 nm and emission at 530 nm.

Chain of Beta-secretase 1 (P56817 whole entry): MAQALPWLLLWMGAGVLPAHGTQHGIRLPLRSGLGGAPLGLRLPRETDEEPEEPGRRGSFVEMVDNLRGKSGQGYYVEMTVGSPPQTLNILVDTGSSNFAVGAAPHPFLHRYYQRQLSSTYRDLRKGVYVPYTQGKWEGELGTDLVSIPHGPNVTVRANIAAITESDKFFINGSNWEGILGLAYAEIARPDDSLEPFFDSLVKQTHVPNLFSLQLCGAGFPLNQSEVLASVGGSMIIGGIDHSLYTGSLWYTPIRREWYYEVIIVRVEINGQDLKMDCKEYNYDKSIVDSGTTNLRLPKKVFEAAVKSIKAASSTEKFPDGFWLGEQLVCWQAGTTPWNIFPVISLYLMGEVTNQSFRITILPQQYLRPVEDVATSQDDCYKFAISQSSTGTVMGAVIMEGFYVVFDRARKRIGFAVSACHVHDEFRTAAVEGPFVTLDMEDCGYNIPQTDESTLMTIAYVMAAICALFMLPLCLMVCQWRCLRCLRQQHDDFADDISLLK

Compared with `O=C(/C=C/c1ccccc1O)c1ccccc1` [Chalcone, 1], `O=C(/C=C/c1ccccc1O)c1cccc(O)c1` [(E)-1-(3-hydroxyphenyl)-3-(2-hydroxyphenyl)-2-propen-1-one (10)] is lower in IC50: greater than 60 µM for the first, 30.4 µM for the second. The second is the more potent here.

Compared with `O=C(/C=C/c1cccc(O)c1)c1ccc(O)cc1O` [(E)-3,2'',4''-Trihydroxychalcone], `O=C(/C=C/c1ccc(O)c(O)c1)c1ccc(O)cc1O` [(E)-3-(3,4-Dihydroxy-phenyl)-1-(2,4-dihydroxy-phenyl)-propenone] is 3.4-fold lower in IC50: 8.03 µM for the first, 2.37 µM for the second. The second is the more potent here.

Compared with `O=C(/C=C/c1ccccc1O)c1cc(O)cc(O)c1` [(E)-1-(3,5-dihydroxyphenyl)-3-(2-hydroxyphenyl)-2-propen-1-one (16)], `O=C(/C=C/c1ccccc1O)c1ccc(O)c(O)c1` [(E)-1-(3,4-dihydroxyphenyl)-3-(2-hydroxyphenyl)-2-propen-1-one (15)] is 1.6-fold lower in IC50: 19.4 µM for the first, 11.8 µM for the second.

Compared with `O=C(/C=C/c1ccccc1O)c1ccc(O)cc1O` [2,2'',4''-Trihydroxychalcone], `O=C(/C=C/c1ccccc1O)c1cc(O)ccc1O` is 17-fold higher in IC50: 2.45 µM for the first, 41.8 µM for the second.

`O=C(/C=C/c1ccccc1O)c1cccc(O)c1O` [(E)-1-(2,3-dihydroxyphenyl)-3-(2-hydroxyphenyl)-2-propen-1-one (12)] and `O=C(/C=C/c1ccccc1O)c1c(O)cccc1O` [(E)-1-(2,6-dihydroxyphenyl)-3-(2-hydroxyphenyl)-2-propen-1-one (14)] are within 1.5-fold of each other in IC50: 21.8 µM for the first, 15.6 µM for the second.

Compared with `C=CCOc1ccccc1/C=C/C(=O)c1ccc(O)cc1O`, `COc1ccccc1/C=C/C(=O)c1ccc(O)cc1O` [(E)-1-(2,4-dihydroxyphenyl)-3-(2-methoxyphenyl)-2-propen-1-one (4)] is lower in IC50: greater than 60 µM for the first, 2.63 µM for the second. The second is the more potent here.

Going from `O=C(/C=C/c1c(O)cccc1O)c1ccc(O)cc1O` [(E)-1-(2,4-dihydroxyphenyl)-3-(2,6-dihydroxyphenyl)-2-propen-1-one (20)] to `O=C(/C=C/c1cccc(O)c1O)c1ccc(O)cc1O` [(E)-1-(2,4-dihydroxyphenyl)-3-(2,3-dihydroxyphenyl)-2-propen-1-one (17)], the IC50 falls from 1.71 µM to 0.27 µM (6.3-fold). The second is the more potent here.

Going from `O=C(/C=C/c1ccccc1Cl)c1ccc(O)cc1O` to `O=C(/C=C/c1ccccc1[N+](=O)[O-])c1ccc(O)cc1O` [(E)-1-(2,4-dihydroxyphenyl)-3-(2-nitrophenyl)-2-propen-1-one (7)], the IC50 rises from 11.4 µM to greater than 60 µM. The first is the more potent here.

First: O=C(/C=C/c1cc(O)cc(O)c1)c1ccc(O)cc1O [(E)-1-(2,4-dihydroxyphenyl)-3-(3,5-dihydroxyphenyl)-2-propen-1-one (22)]
Second: O=C(/C=C/c1ccc(O)cc1O)c1ccc(O)cc1O [2,2',4,4'-tetrahydroxychalcone]
The IC50 of the first is 3.4-fold higher: 2.08 µM for the first, 0.62 µM for the second. The second is the more potent here.

Compared with `O=C(/C=C/c1ccccc1O)c1ccc(O)cc1` [(E)-1-(4-hydroxyphenyl)-3-(2-hydroxyphenyl)-2-propen-1-one (11)], `O=C(/C=C/c1ccccc1O)c1ccccc1O` is higher in IC50: 58.1 µM for the first, greater than 60 µM for the second. The first is the more potent here.

`O=C(/C=C/c1cc(O)ccc1O)c1ccc(O)cc1O` [(E)-1-(2,4-dihydroxyphenyl)-3-(2,5-dihydroxyphenyl)-2-propen-1-one (19)] showed an IC50 of 1.94 µM.
